Source: paper PMC11747885, “Potent inhibitors of the human RNA ligase Rlig1 highlights its role in RNA integrity maintenance under oxidative cellular stress” (Chemical Science, 2025)
Values joined by “and” are separate entries in the source; they are usually repeats but may differ in a detail not shown here. Equal entries are not always repeated. “Also recorded” adds a separate entry of the source. Marks after values point to notes of the source that are not given here.

Legend:
[1] = target: T1, Rlig1-AMP (Homo sapiens, UniProt Q8N999); assay: Radioactive RNA ligation assay (hit validation, 10 µM test and IC50 determination); assay type: biochemical; settings: for inhibition of Rlig1-AMP ligation (urea-PAGE): 10 μM compound, 500 nM Rlig1-AMP, 20 min 37 °C; for HillSlope (best-fit value) / Span (best-fit value) / IC50 / LogIC50 (best-fit value): four-parameter fit; for IC50: n = 3, read-out: IC50 (best-fit value); for inhibition at 30 µM: log Compound [µM] 1.47712; for LogIC50 (best-fit value): log of µM; for Bottom (best-fit value) / Top (best-fit value): log(inhibitor) vs. response, variable slope (four parameters); for inhibition in radioactive ligation assay (hit validation): 10 µM compound, 37 °C, 20 min
T1 construct: made in house; host or cells: E. coli BL21 (DE3), pET15b-Rlig1
T1 sequence (Q8N999 whole entry): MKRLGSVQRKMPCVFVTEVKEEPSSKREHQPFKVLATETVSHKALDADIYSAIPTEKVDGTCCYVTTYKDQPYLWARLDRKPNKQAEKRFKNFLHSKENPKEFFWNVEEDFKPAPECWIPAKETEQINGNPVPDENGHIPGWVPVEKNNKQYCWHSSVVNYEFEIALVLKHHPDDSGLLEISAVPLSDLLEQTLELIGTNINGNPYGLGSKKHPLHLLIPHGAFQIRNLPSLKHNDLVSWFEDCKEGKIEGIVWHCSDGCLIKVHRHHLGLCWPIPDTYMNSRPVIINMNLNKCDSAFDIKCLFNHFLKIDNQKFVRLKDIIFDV

[2] = in vitro; settings: human
[3] = tested on: HEK293 cells; assay: Cell viability assay of HEK293 cells treated with inhibitors (CellTiter-Glo); settings: for cytotoxicity (in words) / EC50: HEK293, 24 h; for cytotoxicity (in words): up to 30 μM; for IC50 (Figure 3D: EC50 values for plot; log(inhibitor) vs. response -- Variable slope (four parameters)) / LogIC50 (log(inhibitor) vs. response -- Variable slope (four parameters)): HEK293 cell viability, fit per plate (3 plates, 4 technical replicates each); for IC50 (Figure 3D: EC50 values for plot; log(inhibitor) vs. response -- Variable slope (four parameters)): highest tested concentration 30 µM; for LogIC50 (log(inhibitor) vs. response -- Variable slope (four parameters)): log of [µM]; for EC50: Homo sapiens
[4] = tested on: HEK293 cells; assay: Cell viability assay of HEK293 cells treated with inhibitors and menadione; assay type: cell-based, human; settings: for Mean Diff, (Predicted (LS) mean diff,) w/o menadione - w menadione: 2 way ANOVA, Šídák's multiple comparisons test, normalised viability
[5] = as above; assay type: cell-based, human; settings: human, HEK293 cells, w/o Menadione; for viability at 7.5 µM: 7.5 µM compound; for viability at 15 µM: 15 µM compound; for viability at 30 µM: 30 µM compound; for viability at 60 µM: 60 µM compound
[6] = replicates I-III, read-out: percentage inhibition (dose response curve for IC50)
[7] = 20240508 plate 012, DMSO Ko no Mendione = 100
[8] = 20240508 plate 013, DMSO Ko no Mendione = 100
[9] = 20240515 plate 014, DMSO Ko no Mendione = 100
[10] = 20240515 plate 015, DMSO Ko no Mendione = 100

SMILES: Cc1cc(Nc2ccc(NC(=O)c3ccc(Nc4ccnc5[nH]ccc45)cc3)cc2)nc(N)n1 [Compound 46]
- inhibition of Rlig1-AMP ligation (urea-PAGE) [1]: Ligation was inhibited; also recorded: inhibited ligase activity
- HillSlope (best-fit value) [1]: 6.864
- Span (best-fit value) [1]: 90.69
- IC50 [1]: 7.1 µM
- inhibition at 30 µM [1, 6]: 100%
- LogIC50 (best-fit value) [1]: 0.8514
- Bottom (best-fit value) [1]: 7.468
- Top (best-fit value) [1]: 98.16
- viability at 24 h, 0.234375 µM [2]: 104%
- viability at 24 h, 0.46875 µM [2]: 98.9%
- viability at 24 h, 0.9375 µM [2]: 97.1%
- viability at 24 h, 1.875 µM [2]: 96.8%
- viability at 24 h, 3.75 µM [2]: 94.8%
- viability at 24 h, 7.5 µM [2]: 64.8%
- viability at 24 h, 15 µM [2]: 23.1%
- viability at 24 h, 30 µM [2]: 7.96%
- cytotoxicity (in words) [3]: comparatively high cytotoxicity
- IC50 (Figure 3D: EC50 values for plot; log(inhibitor) vs. response -- Variable slope (four parameters)) [3]: 8.158 µM and 9.993 µM and 11.5211 µM
- LogIC50 (log(inhibitor) vs. response -- Variable slope (four parameters)) [3]: 0.9116 and 0.9997 and 1.0615
- EC50 [3]: 9.42 µM

SMILES: Nc1cc(Nc2ccc(NC(=O)c3ccc(Nc4ccnc5ccccc45)cc3)cc2)ccn1 [Compound 36]
- inhibition of Rlig1-AMP ligation (urea-PAGE) [1]: Ligation was inhibited; also recorded: fully inhibited
- HillSlope (best-fit value) [1]: 3.369
- Span (best-fit value) [1]: 96.63
- IC50 [1]: 3.86 µM
- inhibition at 30 µM [1, 6]: 100%
- inhibition at 0.9375 µM ([1]; log Compound [µM] -0.0280287, replicates I-III, read-out: percentage inhibition (dose response curve for IC50)): 5.58%
- inhibition at 0.46875 µM ([1]; log Compound [µM] -0.329059, replicates I-III, read-out: percentage inhibition (dose response curve for IC50)): 2.58%
- LogIC50 (best-fit value) [1]: 0.5866
- Bottom (best-fit value) [1]: 4.368
- Top (best-fit value) [1]: 101
- Mean Diff, (Predicted (LS) mean diff,) w/o menadione - w menadione ([4]; 7.5 µM compound): 8.308
- Cell viability raw signal, technical replicates ([4]; 7.5 µM compound, w Menadione (40µM), 20240508 plate 012): 27030 and 23198 and 28223 and 26549
- Cell viability raw signal, technical replicates ([4]; 7.5 µM compound, w Menadione (40µM), 20240508 plate 013): 27603 and 23558 and 27792 and 26913
- Cell viability raw signal, technical replicates ([4]; 7.5 µM compound, w Menadione (40µM), 20240515 plate 014): 28096 and 25755 and 28850 and 30838
- Cell viability raw signal, technical replicates ([4]; 7.5 µM compound, w Menadione (40µM), 20240515 plate 015): 27895 and 33778 and 30188 and 31212
- Cell viability raw signal, technical replicates ([4]; 7.5 µM compound, w/o Menadione, 20240508 plate 012): 385210 and 396370 and 371980 and 372320
- Cell viability raw signal, technical replicates ([4]; 7.5 µM compound, w/o Menadione, 20240508 plate 013): 405510 and 393590 and 402690 and 387370
- Cell viability raw signal, technical replicates ([4]; 7.5 µM compound, w/o Menadione, 20240515 plate 014): 380800 and 387250 and 402000 and 397370
- Cell viability raw signal, technical replicates ([4]; 7.5 µM compound, w/o Menadione, 20240515 plate 015): 356280 and 367960 and 366010 and 366080
- Mean Diff, (Predicted (LS) mean diff,) w/o menadione - w menadione ([4]; 15 µM compound): 17.8
- Cell viability raw signal, technical replicates ([4]; 15 µM compound, w Menadione (40µM), 20240508 plate 012): 22111 and 21413 and 21368 and 22937
- Cell viability raw signal, technical replicates ([4]; 15 µM compound, w Menadione (40µM), 20240508 plate 013): 69935* and 23670 and 27045 and 22274
- Cell viability raw signal, technical replicates ([4]; 15 µM compound, w Menadione (40µM), 20240515 plate 014): 28312 and 27245 and 29168 and 29878
- Cell viability raw signal, technical replicates ([4]; 15 µM compound, w Menadione (40µM), 20240515 plate 015): 27690 and 32043 and 28425 and 26586
- Mean Diff, (Predicted (LS) mean diff,) w/o menadione - w menadione ([4]; 30 µM compound): 11.65
- Cell viability raw signal, technical replicates ([4]; 30 µM compound, w Menadione (40µM), 20240508 plate 012): 24245 and 20350 and 24935 and 20723
- Cell viability raw signal, technical replicates ([4]; 30 µM compound, w Menadione (40µM), 20240508 plate 013): 21997 and 20914 and 24666 and 21857
- Cell viability raw signal, technical replicates ([4]; 30 µM compound, w Menadione (40µM), 20240515 plate 014): 26699 and 30187 and 27245 and 26622
- Cell viability raw signal, technical replicates ([4]; 30 µM compound, w Menadione (40µM), 20240515 plate 015): 24014 and 26245 and 23994 and 40225
- Cell viability raw signal, technical replicates ([4]; 30 µM compound, w/o Menadione, 20240508 plate 012): 348650 and 347840 and 366110 and 365510
- Mean Diff, (Predicted (LS) mean diff,) w/o menadione - w menadione ([4]; 60 µM compound): 4.361
- Cell viability raw signal, technical replicates ([4]; 60 µM compound, w Menadione (40µM), 20240508 plate 012): 158210* and 163010* and 19082* and 18545*
- Cell viability raw signal, technical replicates ([4]; 60 µM compound, w Menadione (40µM), 20240508 plate 013): 166210* and 174600* and 20028* and 18681*
- Cell viability raw signal, technical replicates ([4]; 60 µM compound, w Menadione (40µM), 20240515 plate 014): 33336 and 33031 and 28059 and 24828
- Cell viability raw signal, technical replicates ([4]; 60 µM compound, w Menadione (40µM), 20240515 plate 015): 185100* and 184480* and 111650* and 66878*
- Cell viability raw signal, technical replicates ([4]; 60 µM compound, w/o Menadione, 20240508 plate 012): 344220 and 331510 and 355900 and 344190
- Cell viability raw signal, technical replicates ([4]; 60 µM compound, w/o Menadione, 20240508 plate 013): 348460 and 354210 and 355750 and 353860
- Cell viability raw signal, technical replicates ([4]; 60 µM compound, w/o Menadione, 20240515 plate 014): 336500 and 373330 and 357790 and 375230
- Cell viability raw signal, technical replicates ([4]; 60 µM compound, w/o Menadione, 20240515 plate 015): 321900 and 321160 and 330420 and 326560
- viability at 7.5 µM [5, 7]: 91%
- viability at 7.5 µM [5, 8]: 101%
- viability at 7.5 µM [5, 9]: 96%
- viability at 7.5 µM [5, 10]: 89%
- viability at 15 µM [5, 7]: 98.9%
- viability at 15 µM [5, 8]: 99.3%
- viability at 15 µM [5, 9]: 94.8%
- viability at 15 µM [5, 10]: 94.9%
- viability at 30 µM [5, 7]: 85.2%
- viability at 30 µM [5, 8]: 98.7%
- viability at 30 µM [5, 9]: 89.7%
- viability at 30 µM [5, 10]: 81.9%
- viability at 60 µM [5, 7]: 82.1%
- viability at 60 µM [5, 8]: 89.4%
- viability at 60 µM [5, 9]: 88.4%
- viability at 60 µM [5, 10]: 79.5%
- viability at 24 h, 0.234375 µM [2]: 106%
- viability at 24 h, 0.46875 µM [2]: 99.9%
- viability at 24 h, 0.9375 µM [2]: 104%
- viability at 24 h, 1.875 µM [2]: 99.2%
- viability at 24 h, 3.75 µM [2]: 93.6%
- viability at 24 h, 7.5 µM [2]: 93.9%
- viability at 24 h, 15 µM [2]: 86.8%
- viability at 24 h, 30 µM [2]: 90.4%
- cytotoxicity (in words) [3]: no detectable cytotoxicity
- IC50 (Figure 3D: EC50 values for plot; log(inhibitor) vs. response -- Variable slope (four parameters)) [3]: 2607.3 µM and 1652.85 µM and 299.495 µM
- LogIC50 (log(inhibitor) vs. response -- Variable slope (four parameters)) [3]: 3.416 and 3.218 and 2.476
- EC50 [3]: > 30 µM

SMILES: CN(C)Cc1ccc(-c2cnn3c(-c4cccc(NC(=O)c5cccc(C(F)(F)F)c5)c4)ccnc23)cc1 [Compound 17, reference compound]
- inhibition in radioactive ligation assay (hit validation) [1]: above 70%

SMILES: CN(C)C/C=C/C(=O)Nc1ccc(C(=O)Nc2cccc(Nc3ncc(Cl)c(-c4c[nH]c5ccccc45)n3)c2)cc1.Cl [Compound 2, THZ1 (Hydrochloride), reference compound]
- inhibition in radioactive ligation assay (hit validation) [1]: above 70%
